Reference: ChEMBL document CHEMBL4265969, “Design, synthesis and biological evaluation of (2S,3R,4R,5S,6R)-5-fluoro-6-(hydroxymethyl)-2-aryltetrahydro-2H-pyran-3,4-diols as potent and orally active SGLT dual inhibitors” (Bioorg Med Chem Lett, 2018)
Active and inactive are the calls of the source. The calls are words filed in the database; no cut-off is given here.

Legend:
[1] = Clearance in Sprague-Dawley rat at 2 mg/kg, iv; format: ADME, organism-based; conditions: in vivo
[2] = Metabolic stability in human liver microsomes at 1 uM after 10 mins in presence of NADPH; format: ADME, microsome; conditions: read-out: Stability
[3] = target: T1, Sodium/glucose cotransporter 1 (Rattus norvegicus, UniProt P53790); test: Inhibition of rat SGLT1 expressed in CHOK1 cells assessed as reduction in Na-dependent [14C]-AMG uptake preincubated for 10 mins followed by [14C]-AMG addition measured after 2 hrs by TopCount method; format: cell-based
T1 sequence (P53790 whole entry): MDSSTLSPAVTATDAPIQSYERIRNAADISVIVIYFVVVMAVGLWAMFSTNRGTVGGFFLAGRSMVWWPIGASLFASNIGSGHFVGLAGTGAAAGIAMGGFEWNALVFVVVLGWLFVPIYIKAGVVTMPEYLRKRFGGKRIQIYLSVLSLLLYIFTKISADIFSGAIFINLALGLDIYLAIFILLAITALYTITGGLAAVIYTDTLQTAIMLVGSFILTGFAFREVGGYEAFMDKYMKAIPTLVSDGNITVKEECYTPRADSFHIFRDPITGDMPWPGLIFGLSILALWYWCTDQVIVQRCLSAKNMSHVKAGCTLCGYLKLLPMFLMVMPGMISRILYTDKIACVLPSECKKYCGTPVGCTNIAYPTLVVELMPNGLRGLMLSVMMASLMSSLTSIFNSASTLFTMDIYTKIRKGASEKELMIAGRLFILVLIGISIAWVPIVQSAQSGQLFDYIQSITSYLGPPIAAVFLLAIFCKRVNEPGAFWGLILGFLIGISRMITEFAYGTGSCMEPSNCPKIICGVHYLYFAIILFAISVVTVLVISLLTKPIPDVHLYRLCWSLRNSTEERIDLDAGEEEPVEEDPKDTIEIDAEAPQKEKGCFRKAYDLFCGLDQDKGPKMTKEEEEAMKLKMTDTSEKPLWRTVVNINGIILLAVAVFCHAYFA

[4] = Cmax in cynomolgus monkey at 10 mg/kg, po; format: ADME, organism-based, Macaca fascicularis; set-up: dose 10 mg/kg, route oral; conditions: in vivo
Rattus norvegicus [5] = test: Antidiabetic activity in Sprague-Dawley rat assessed as decrease in postprandial blood glucose AUC at 1 mg/kg, po administered 1 hr prior to glucose challenge measured up to 120 mins by OGTT relative to control; format: functional; set-up: scale not given: the % may be the effect or the level left
[6] = AUC (0 to infinity) in cynomolgus monkey at 10 mg/kg, po; format: ADME, organism-based, Macaca fascicularis; set-up: dose 10 mg/kg, time infinity, route oral; conditions: in vivo
[7] = Half life in dog hepatocytes at 1 uM; format: ADME, cell-based, Canis lupus familiaris, Hepatocyte
Salmonella typhimurium = test: Genotoxicity in Salmonella typhimurium TA98; format: toxicity, organism-based; conditions: salmonella enterica subsp. enterica serovar typhimurium
[8] = AUC (0 to infinity) in Sprague-Dawley rat at 10 mg/kg, po; format: ADME, organism-based; set-up: dose 10 mg/kg, route oral, time infinity; conditions: in vivo
[9] = Tmax in Sprague-Dawley rat at 10 mg/kg, po; format: ADME, organism-based; conditions: in vivo
[10] = Metabolic stability in rat liver microsomes at 1 uM after 10 mins in presence of NADPH; format: ADME, microsome; conditions: read-out: Stability
[11] = target: T2, Sodium/glucose cotransporter 2 (Rattus norvegicus, UniProt P53792); test: Inhibition of rat SGLT2 expressed in CHOK1 cells assessed as reduction in Na-dependent [14C]-AMG uptake preincubated for 10 mins followed by [14C]-AMG addition measured after 2 hrs by TopCount method; format: cell-based
T2 sequence (P53792 whole entry): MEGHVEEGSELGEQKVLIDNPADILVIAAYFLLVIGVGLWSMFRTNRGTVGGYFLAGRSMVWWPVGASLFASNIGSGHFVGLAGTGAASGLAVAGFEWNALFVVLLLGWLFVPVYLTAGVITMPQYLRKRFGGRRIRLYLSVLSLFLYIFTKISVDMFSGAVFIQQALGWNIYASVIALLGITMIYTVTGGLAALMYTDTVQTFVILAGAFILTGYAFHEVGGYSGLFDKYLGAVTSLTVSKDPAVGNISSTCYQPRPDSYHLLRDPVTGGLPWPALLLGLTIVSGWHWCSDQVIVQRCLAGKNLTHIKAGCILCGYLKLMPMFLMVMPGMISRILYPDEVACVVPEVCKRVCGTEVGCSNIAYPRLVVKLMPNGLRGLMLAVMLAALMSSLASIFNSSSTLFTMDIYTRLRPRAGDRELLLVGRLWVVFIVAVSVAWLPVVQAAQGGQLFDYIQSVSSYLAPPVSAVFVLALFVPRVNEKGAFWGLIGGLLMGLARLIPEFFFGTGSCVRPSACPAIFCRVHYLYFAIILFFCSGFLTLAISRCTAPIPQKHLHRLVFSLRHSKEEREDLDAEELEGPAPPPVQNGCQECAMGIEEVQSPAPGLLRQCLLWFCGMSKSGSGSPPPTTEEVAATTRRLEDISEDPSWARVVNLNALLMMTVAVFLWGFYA

Mus musculus [12] = test: Anti-hyperglycemic effect in db/db mouse assessed as decrease in fed blood glucose AUC at 10 mg/kg, po measured up to 24 hrs relative to control; format: functional; set-up: scale not given: the % may be the effect or the level left
Mus musculus [13] = test: In vivo inhibition of SGLT2 in db/db mouse assessed as increase in urine glucose excretion at 10 mg/kg, po after 24 hrs; format: functional, organism-based
[14] = Half life in Sprague-Dawley rat at 2 mg/kg, iv; format: ADME, organism-based; conditions: in vivo
[15] = Oral bioavailability in Sprague-Dawley rat at 10 mg/kg; format: ADME, organism-based; conditions: in vivo
[16] = Half life in Sprague-Dawley rat at 10 mg/kg, po; format: ADME, organism-based; conditions: in vivo
[17] = Metabolic stability in mouse liver microsomes at 1 uM after 10 mins in presence of NADPH; format: ADME, microsome; conditions: read-out: Stability
[18] = Oral bioavailability in cynomolgus monkey at 10 mg/kg; format: ADME, organism-based, Macaca fascicularis; conditions: in vivo
Rattus norvegicus [19] = test: Anti-hyperglycemic effect in ZDF rat assessed as decrease in fed blood glucose AUC at 10 mg/kg, po measured up to 24 hrs relative to control; format: functional; set-up: scale not given: the % may be the effect or the level left
[20] = target: Voltage-gated inwardly rectifying potassium channel KCNH2 (Homo sapiens, UniProt Q12809); test: Inhibition of human ERG at 50 uM
[21] = Clearance in cynomolgus monkey at 2 mg/kg, iv; format: ADME, organism-based, Macaca fascicularis; conditions: in vivo
Rattus norvegicus [22] = test: Antidiabetic activity in Sprague-Dawley rat assessed as decrease in postprandial blood glucose level administered orally 1 hr prior to glucose challenge measured up to 120 mins by OGTT; format: functional, organism-based
[23] = Cmax in Sprague-Dawley rat at 10 mg/kg, po; format: ADME, organism-based; set-up: dose 10 mg/kg, route oral; conditions: in vivo
[24] = Half life in cynomolgus monkey at 2 mg/kg, iv; format: ADME, organism-based, Macaca fascicularis; conditions: in vivo
[25] = Tmax in cynomolgus monkey at 10 mg/kg, po; format: ADME, organism-based, Macaca fascicularis; conditions: in vivo
[26] = Volume of distribution at steady state in Sprague-Dawley rat at 2 mg/kg, iv; format: ADME, organism-based; conditions: in vivo, read-out: Vdss
[27] = Half life in cynomolgus monkey at 10 mg/kg, po; format: ADME, organism-based, Macaca fascicularis; conditions: in vivo
[28] = Half life in Sprague-Dawley rat hepatocytes at 1 uM; format: ADME, cell-based, Hepatocyte
[29] = Half life in human hepatocytes at 1 uM; format: ADME, cell-based, Hepatocyte
[30] = Half life in monkey hepatocytes at 1 uM; format: ADME, cell-based, Macaca mulatta, Hepatocyte; conditions: rhesus monkey
[31] = Volume of distribution at steady state in cynomolgus monkey at 2 mg/kg, iv; format: ADME, organism-based, Macaca fascicularis; conditions: in vivo, read-out: Vdss

Chain of Voltage-gated inwardly rectifying potassium channel KCNH2 (Q12809 whole entry): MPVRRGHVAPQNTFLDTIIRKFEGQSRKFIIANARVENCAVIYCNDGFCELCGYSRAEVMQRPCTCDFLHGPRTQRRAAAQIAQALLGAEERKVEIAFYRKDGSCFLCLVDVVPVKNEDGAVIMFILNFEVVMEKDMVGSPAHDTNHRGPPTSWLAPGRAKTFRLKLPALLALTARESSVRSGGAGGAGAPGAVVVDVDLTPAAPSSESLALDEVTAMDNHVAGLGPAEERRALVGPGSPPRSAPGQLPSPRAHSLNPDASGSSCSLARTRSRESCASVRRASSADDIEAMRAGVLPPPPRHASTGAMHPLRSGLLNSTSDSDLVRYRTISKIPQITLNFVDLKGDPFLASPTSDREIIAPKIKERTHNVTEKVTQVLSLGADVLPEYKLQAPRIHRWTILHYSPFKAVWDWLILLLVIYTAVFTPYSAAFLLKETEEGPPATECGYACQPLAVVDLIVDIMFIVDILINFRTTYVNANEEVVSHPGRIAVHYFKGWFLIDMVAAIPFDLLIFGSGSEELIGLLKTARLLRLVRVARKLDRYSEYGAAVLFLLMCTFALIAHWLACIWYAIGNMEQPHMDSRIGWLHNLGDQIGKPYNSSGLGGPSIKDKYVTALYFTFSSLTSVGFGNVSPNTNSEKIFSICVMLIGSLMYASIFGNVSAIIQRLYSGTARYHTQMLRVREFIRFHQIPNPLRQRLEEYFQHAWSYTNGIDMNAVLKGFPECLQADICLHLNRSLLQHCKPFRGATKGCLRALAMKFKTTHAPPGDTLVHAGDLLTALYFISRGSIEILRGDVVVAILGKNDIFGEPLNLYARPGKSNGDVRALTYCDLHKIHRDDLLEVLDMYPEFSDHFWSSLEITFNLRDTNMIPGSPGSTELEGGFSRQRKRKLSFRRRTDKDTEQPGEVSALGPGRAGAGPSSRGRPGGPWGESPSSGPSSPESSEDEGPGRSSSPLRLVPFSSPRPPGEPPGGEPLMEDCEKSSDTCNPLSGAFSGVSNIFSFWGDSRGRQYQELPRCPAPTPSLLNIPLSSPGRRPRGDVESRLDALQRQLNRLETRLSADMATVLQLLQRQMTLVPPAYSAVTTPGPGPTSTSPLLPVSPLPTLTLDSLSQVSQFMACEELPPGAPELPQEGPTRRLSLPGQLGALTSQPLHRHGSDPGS

Structure (SMILES): COc1c([C@@H]2O[C@H](CO)[C@@H](F)[C@H](O)[C@H]2O)cc(Cc2ccc3c(c2)OCCO3)c2c1CCO2
- clearance [1]: 50.9 mL/min/kg
- remaining at 10 min, 1 µM [2]: 95%
- IC50 [3]: 68 nM
- Cmax [4]: 1490 ng/mL
- Activity (Rattus norvegicus [5]): 32.4%
- AUC(0-inf) [6]: 6090 ng·h/mL
- half-life at 1 µM [7]: 8 h
- Activity (Salmonella typhimurium): Non-Toxic
- AUC(0-inf) [8]: 1600 ng·h/mL
- Tmax [9]: 0.3 h
- remaining at 10 min, 1 µM [10]: 66%
- IC50 [11]: 16 nM
- Activity (Mus musculus [12]): 57.4%
- inhibition (Mus musculus [13]): Active
- half-life [14]: 0.41 h
- bioavailability [15]: 48.2%
- half-life [16]: 1.44 h
- remaining at 10 min, 1 µM [17]: 82%
- bioavailability [18]: 56%
- Activity (Rattus norvegicus [19]): 56.8%
- inhibition (INH) [20]: Not Active
- clearance [21]: 15.5 mL/min/kg
- Activity (Rattus norvegicus [22]): Dose-dependent effect
- Cmax [23]: 990 ng/mL
- half-life [24]: 7.9 h
- Tmax [25]: 1.33 h
- Vd [26]: 1.07 L/kg
- half-life [27]: 5.6 h
- half-life at 1 µM [28]: 1.2 h
- half-life at 1 µM [29]: 5.4 h
- half-life at 1 µM [30]: 2.2 h
- Vd [31]: 3.05 L/kg
